Measured values published in US20120058997A1, “IMIDAZO[1,2-B]PYRIDAZINE AND PYRAZOLO[1,5-A]PYRIMIDINE DERIVATIVES AND THEIR USE AS PROTEIN KINASE INHIBITORS” (SuperGen, Inc., priority 2006, published 2012).
Where two headings read alike, the source gives them in different places.

Columns and labels:
Pim-1 kinase = Pim-1 kinase (Homo sapiens, UniProt P11309); assay: Promega Kinase-Glo Pim-1 kinase inhibition assay; format: biochemical;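 further: in vitro Pim-1 reaction run 2 h at 30 °C, then leftover ATP measured by luciferase luminescence, where signal falls as kinase activity rises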
Pim-1 kinase, sequence (P11309 whole entry): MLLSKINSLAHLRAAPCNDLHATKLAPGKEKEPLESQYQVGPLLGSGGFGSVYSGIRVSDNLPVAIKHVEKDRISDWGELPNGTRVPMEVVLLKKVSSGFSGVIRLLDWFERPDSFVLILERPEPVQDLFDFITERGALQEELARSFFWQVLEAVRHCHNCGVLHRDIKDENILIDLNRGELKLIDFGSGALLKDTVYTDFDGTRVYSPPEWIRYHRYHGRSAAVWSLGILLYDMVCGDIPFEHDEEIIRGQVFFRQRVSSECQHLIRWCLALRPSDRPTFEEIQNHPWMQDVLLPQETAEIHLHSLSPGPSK

K562 Cells = assay: Cell growth inhibition, Cell-Titer-Glo, 96 hours; format: cell-based;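 further: luminescent ATP signal as an index of viable cell number, drug-treated versus cells given an equal volume of DMSO vehicle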
PC-3 Cells = assay: Cell growth inhibition, Cell-Titer-Glo, 96 hours; format: cell-based;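 further: luciferase luminescence reflecting cellular ATP, used as a proxy for cell number, with compound-treated cells compared against DMSO vehicle control wells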
[1] = IC50 (Kinase inhibitory activity), Table V, Pim-1 kinase, Kinase-Glo
[2] = Homo sapiens, K562, read-out: IC50 K562 Cells (inhibit cell growth to 50% of untreated), Table VI
[3] = Homo sapiens, read-out: IC50 PC-3 Cells (inhibit cell growth to 50% of untreated), Table VI
[4] = Table VIII (results), values in uM, read-out: IC50(Kinase)
[5] = Homo sapiens, K562, Table IX (results), read-out: IC50 (K562)
[6] = Homo sapiens, Table IX (results), read-out: IC50 (PC-3)
[7] = Table X, Kinase-Glo, read-out: IC50 on Pim1

Compound | IC50 (K562 Cells; [5]) [µM] | IC50 (PC-3 Cells; [6]) [µM] | IC50 (Pim-1 kinase; [7]) [µM] | also measured
NS(=O)(=O)c1ccc(CNc2ccc3ncc(-c4ccc(CCC(=O)O)cc4)n3n2)cc1 [Compound 1-1] | – | – | – | IC50 (Pim-1 kinase; [1]): 4.47 µM; IC50 (K562 Cells; [2]): > 300 µM; IC50 (PC-3 Cells; [3]): > 300 µM
CCC(CO)Nc1ccc2ncc(-c3ccc(NS(C)(=O)=O)cc3)n2n1 (stereo not shown) [Compound 1-3] | – | – | – | IC50 (Pim-1 kinase; [1]): 5.35 µM; IC50 (K562 Cells; [2]): 80.2 µM; IC50 (PC-3 Cells; [3]): 39 µM
Cc1ccc(S(=O)(=O)Nc2ccc(Nc3ccn4ncc(-c5cccc(N)c5)c4n3)cc2)cc1 [Compound 3-9] | – | – | – | IC50 (K562 Cells; [2]): 20.6 µM; IC50 (PC-3 Cells; [3]): 12 µM
Cc1ccc(S(=O)(=O)Nc2ccc(Nc3ccn4ncc(-c5cccc(N(C)C)c5)c4n3)cc2)cc1 [Compound 3-13] | – | – | – | IC50 (Pim-1 kinase; [1]): 52.1 µM; IC50 (K562 Cells; [2]): 29.3 µM; IC50 (PC-3 Cells; [3]): 12.8 µM
CCC(CO)Nc1ccc2ncc(-c3ccc(N(C)C)cc3)n2n1 (stereo not shown) [Compound 7-1] | 67.1 | 29.2 | – | IC50 (Pim-1 kinase; [1]): 3.99 µM; IC50 (Pim-1 kinase; [4]): 3.99 µM; IC50 (K562 Cells; [2]): 67.1 µM; IC50 (PC-3 Cells; [3]): 29.2 µM
CN(C)c1cccc(-c2cnc3ccc(NCCCCO)nn23)c1 [Compound 7-4, 12-(3-(3-(dimethylamino)phenyl)imidazo[1,2-b]pyridazin-6-ylamino)butan-1-ol] | – | – | – | IC50 (Pim-1 kinase; [4]): 1.81 µM; IC50 (K562 Cells; Table IX (results), read-out: IC50 (K562)): 13.6 µM; IC50 (PC-3 Cells; Table IX (results), read-out: IC50 (PC-3)): 54.6 µM
Fc1ccc(-c2ccc3ncc(-c4ccc(F)cc4)n3n2)cc1 [Compound 7-7] | 271 | 87.2 | – | IC50 (Pim-1 kinase; [4]): 9.76 µM
FC(F)(F)Oc1cccc(-c2ccc3ncc(-c4cccc(OC(F)(F)F)c4)n3n2)c1 [Compound 7-13] | 19.1 | 63.2 | – | –
CC[C@@H](N)COc1ccc2ncc(-c3cccc(OC(F)(F)F)c3)n2n1 [Compound 7-18, (R)-1-(3-(3-(trifluoromethoxy)phenyl)imidazo[1,2-b]pyridazin-6-yloxy)butan-2-amine] | 5.82 | – | – | IC50 (Pim-1 kinase; Table VIII (results), values in nM, read-out: IC50(Kinase)): 0.481 µM
CC(C)N1CCC(CNc2ccc3ncc(-c4cccc(OC(F)(F)F)c4)n3n2)CC1 [Compound 7-35, N-((1-isopropylpiperidin-4-yl)methyl)-3-(3(trifluoromethoxy)phenyl)imidazo[1,2b]pyridazin-6-amine] | 2.92 | 12.8 | – | –
CCN1CCC(CNc2nn3c(-c4cccc(OC(F)(F)F)c4)cnc3cc2C)CC1 [Compound 7-38, N-((1-ethylpiperidin-4-yl)methyl)-7-methyl-3-((trifluoromethoxy)phenyl)imidazo [1,2-b]pyridazin-6-amine] | 1.41 | 5.68 | – | –
CCN1CCC(CNc2ccc3ncc(-c4cccc(OC(F)(F)F)c4)n3n2)CC1 [Compound 7-39, N-((1-ethylpiperidin-4-yl)methyl)-3-(3-(trifluoromethoxy)phenyl)imidazo[1,2-b]pyridazin-6-amine] | 1.66 | 5.82 | – | –
COc1ccc(OC(F)(F)F)cc1-c1cnc2ccc(NCC3CCN(C)CC3)nn12 [Compound 7-42, 3-(2-methoxy-5-(trifluoromethoxy)phenyl)-N-((1-methylpiperidin-4-yl)methyl)-imidazo[1,2-b]pyridazin-6-amine] | 9.6 | 8.96 | – | –
CN1CCC(CNc2ccc3ncc(-c4cc(OC(F)(F)F)ccc4O)n3n2)CC1 [Compound 7-43, 3-(2-hydroxy-5-(trifluoromethoxy)phenyl)-N-((1-methylpiperidin-4-yl)methyl)-imidazo[1,2-b]pyridazin-6-amine] | 4.9 | – | – | IC50 (Pim-1 kinase; [4]): 1.1 µM
COc1ccc(OC(F)(F)F)cc1-c1cnc2ccc(NCCC3CCN(C)CC3)nn12 [Compound 7-44, 3-(2-methoxy-5-(trifluoromethoxy)phenyl)-N-(2-(1-methylpiperidin-4-yl)ethyl)-imidazo[1,2-b]pyridazin-6-amine] | 5.7 | 17.7 | – | –
CN1CCC(CCNc2ccc3ncc(-c4cc(OC(F)(F)F)ccc4O)n3n2)CC1 [Compound 7-45, 3-(2-Hydroxyl-5-(trifluoromethoxy)phenyl)-N-(2-(1-methylpiperidin-4-yl)ethyl)-imidazo[1,2-b]pyridazin-6-amine] | 14.9 | 52 | – | –
CCN1CCC(CNc2ccc3ncc(-c4cc(OC(F)(F)F)ccc4OC)n3n2)CC1 [Compound 7-46, N-((1-ethylpiperidin-4-yl)methyl)-3-(2-methoxy-5-(trifluoromethoxy)phenyl)-imidazol[1,2-b]pyridazin-6-amine] | 5.3 | 10.6 | – | –
COc1ccc(OC(F)(F)F)cc1-c1cnc2ccc(NCC3CCN(C(C)C)CC3)nn12 [Compound 7-48, N-((1-isopropylpiperidin-4-yl)methyl)-3-(2-methoxy-5-(trifluoromethoxy)phenyl)-imidazo[1,2-b]pyridazin-6-amine] | 5.7 | 17.7 | – | –

Second part, led by results:

IC50 (K562 Cells; [5]) [µM] | IC50 (PC-3 Cells; [6]) [µM] | IC50 (Pim-1 kinase; [7]) [µM] | Compound | also measured
– | – | 0.1 to 1 | FC(F)(F)Oc1cccc(-c2cnn3ccc(NC4CCOCC4)nc23)c1 [Compound 8-50, N-(Tetrahydro-2H-pyran-4-yl)-3-(3-(trifluoromethoxy)phenyl)pyrazolo[1,5-a]pyrimidin-5-amine] | –
– | – | 0.1 to 1 | O=S1(=O)CCC(CNc2ccn3ncc(-c4cccc(OC(F)(F)F)c4)c3n2)CC1 [Compound 8-51, 4-(((3-(3-(Trifluoromethoxy)phenyl)pyrazolo[1,5-a]pyrimidin-5-yl)amino)methyl)tetrahydro-2H-thiopyran 1,1-dioxide] | –
– | – | < 0.01 | N[C@H]1CC[C@H](Nc2ccn3ncc(-c4cccc(OC(F)(F)F)c4)c3n2)CC1 [Compound 8-52, N-(3-(3-(Trifluoromethoxy)phenyl)pyrazolo[1,5-a]pyrimidin-5-yl)cyclohexane-1,4-trans-diamine] | –
– | – | 0.01 to 0.1 | C[C@]1(O)CC[C@H](Nc2ccn3ncc(-c4cccc(C(F)(F)F)c4)c3n2)CC1 [Compound 8-55, 1-Methyl-4-((3-(3-(trifluoromethyl)phenyl)pyrazolo[1,5-a]pyrimidin-5-yl)amino)-trans-cyclohexanol] | –
– | – | 0.01 to 0.1 | CC(C)(O)[C@H]1CC[C@H](Nc2ccn3ncc(-c4cccc(C(F)(F)F)c4)c3n2)CC1 [Compound 8-56] | –
– | – | 0.01 to 0.1 | CO[C@H]1CC[C@H](Nc2ccn3ncc(-c4cccc(C(F)(F)F)c4)c3n2)CC1 [Compound 8-57, 4-(trans-Methoxycyclohexyl)-3-(3-(trifluoromethyl)phenyl)pyrazolo[1,5-a]pyrimidin-5-amine] | –
– | – | 0.1 to 1 | FC(F)(F)c1cccc(-c2cnn3ccc(NC4CCOCC4)nc23)c1 [Compound 8-58, N-(Tetrahydro-2H-pyran-4-yl)-3-(3-(trifluoromethyl)phenyl)pyrazolo[1,5-a]pyrimidin-5-amine] | –
– | – | 0.1 to 1 | O=S1(=O)CCC(CNc2ccn3ncc(-c4cccc(C(F)(F)F)c4)c3n2)CC1 [Compound 8-59] | –
– | – | 1 to 5 | O=S1(=O)CCN(c2ccn3ncc(-c4cccc(C(F)(F)F)c4)c3n2)CC1 [Compound 8-60] | –
– | – | 0.1 to 1 | C[C@]1(O)CC[C@H](Nc2ccn3ncc(-c4cccc(Cl)c4)c3n2)CC1 [Compound 8-62] | –
– | – | 0.01 to 0.1 | CC(C)(O)[C@H]1CC[C@H](Nc2ccn3ncc(-c4cccc(Cl)c4)c3n2)CC1 [Compound 8-63] | –
– | – | 0.01 to 0.1 | CO[C@H]1CC[C@H](Nc2ccn3ncc(-c4cccc(Cl)c4)c3n2)CC1 [Compound 8-64] | –
– | – | 0.1 to 1 | Clc1cccc(-c2cnn3ccc(NC4CCOCC4)nc23)c1 [Compound 8-65] | –
– | – | 0.1 to 1 | O=S1(=O)CCC(CNc2ccn3ncc(-c4cccc(Cl)c4)c3n2)CC1 [Compound 8-66] | –
– | – | 0.01 to 0.1 | CN1CCC(CNc2ccn3ncc(-c4cccc(OC(F)(F)F)c4)c3n2)CC1 [Compound 8-67] | –
– | – | 0.01 to 0.1 | N[C@H]1CC[C@H](Nc2ccc3ncc(-c4cccc(Cl)c4)n3n2)CC1 [Compound 8-68] | –
